Data reported in patent US20070059632A1, “Method of manufacturing a semiconductor device” (priority 2003, published 2007).

Assays:
Type in all cases: physicochemical
[1] = Solubility of compound in safety solvent; details: safety solvent (PGMEA or EL) at 23° C.
Method: (1) Solubility of Compound in Safety Solvent
Each compound was tested for its solubility in safety solvent (PGMEA or EL) at 23° C. The solubility was rated as “A” when dissolved in an amount of 5% by weight or more, “B” when dissolved in an amount of 0.1% by weight or more but less than 5% by weight, and “C” when not dissolved in an amount of 0.1% by weight or more.

[2] = Inhibition of dissolution in alkali developing solution; parameters: key: A: no change was visually noticed in the state of film; C: the surface was roughened or a part of the film was lost because of dissolution; details: resist film immersed in 2.38% aqueous solution of TMAH for 3 min
Method: (3) Inhibition of Dissolution in Alkali Developing Solution
The resist film formed in the evaluation 2 was immersed in a developing solution (2.38% aqueous solution of TMAH) for 3 min. The results were rated as “A” when no change was visually noticed in the state of film, and “C” when the surface was roughened or a part of the film was lost because of dissolution.

[3] = Alkali developability; parameters: key: A: the resist film dissolved completely and disappeared; C: the resist film remained not dissolved even in a slight amount; details: tested on the corresponding polyphenol compound A before introducing the acid-dissociating group; film immersed in 2.38% aqueous TMAH for 10 s
Method: (5) Alkali Developability
A polyphenol compound A corresponding to each compound before introducing the acid-dissociating functional group was examined for its developability with an alkali developing solution.
A 10% by weight solution of each polyphenol compound A in PGMEA was spin-coated using a spin coater, to form a resist film of about 0.2 μm thick. After heating on a hot plate for 3 min at 110° C., the resist film was immersed in a 2.38% aqueous solution of TMAH for 10 s. The results were rated as “A” when the resist film dissolved completely and disappeared, and “C” when the resist film remained not dissolved even in a slight amount.

(3) Inhibition of dissolution in developing solution [2]: C
(5) Alkali developability [3]: A
Compound: Cc1cc(C(C)(c2ccc(O)c(C)c2)c2ccc3ccccc3c2)ccc1O [Compound 14-5, 1-(2-naphthyl)-1,1-bis(3-methyl-4-hydroxyphenyl)ethane, reference compound]
(1) Solubility in safety solvent [1]: A (dissolved in an amount of 5% by weight or more)
